T1: ALK5 T204D (kinase domain of human ALK5, amino acids 200-503) (Homo sapiens, UniProt P36897, T204D)
T1 construct: The kinase domain of human ALK5 (amino acids 200-503); made in house; host or cells: insect cells (baculovirus expression)
T1 sequence (P36897 200-503 T204D): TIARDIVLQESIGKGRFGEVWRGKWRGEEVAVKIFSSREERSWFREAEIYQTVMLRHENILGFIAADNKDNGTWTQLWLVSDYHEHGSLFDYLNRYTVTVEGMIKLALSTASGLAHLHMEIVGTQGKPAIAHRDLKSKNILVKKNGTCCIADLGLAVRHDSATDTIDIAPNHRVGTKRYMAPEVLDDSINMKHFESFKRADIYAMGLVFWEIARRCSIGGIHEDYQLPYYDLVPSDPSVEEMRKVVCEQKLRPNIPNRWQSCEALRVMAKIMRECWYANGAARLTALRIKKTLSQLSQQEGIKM

B1: Follistatin: an antagonist of activin signalling (protein, UniProt P19883 30-344, looked up)
Follistatin: GNCWLRQAKNGRCQVLYKTELSKEECCSTGRLSTSWTEEDVNDNTLFKWMIFNGGAPNCIPCKETCENVDCGPGKKCRMNKKNKPRCVCAPDCSNITWKGPVCGLDGKTYRNECALLKARCKEQPELEVQYQGRCKKTCRDVFCPGSSTCVVDQTNNAYCVTCNRICPEPASSEQYLCGNDGVTYSSACHLRKATCLLGRSIGLAYEGKCIKAKSCEDIQCTGGKKCLWDFKVGRGRCSLCDELCPDSKSDEPVCASDNATYASECAMKEAACSSGVLLEVKHSGSCNSISEDTEEEEEDEDQDYSFPISSILEW

Key:
[1] = biological target: T1, ALK5 T204D (kinase domain of human ALK5, amino acids 200-503); experiment: ALK5 kinase activity, [33P] phosphate incorporation into casein; assay type: biochemical; conditions: casein substrate, 1 μM unlabelled ATP
Protocol: The kinase activity of ALK5 is assessed by measuring radiolabelled phosphate [33P] incorporation in to the generic substrate, casein. The kinase domain of human ALK5 (amino acids 200-503) is fused to an N-terminal histidine tag. The kinase activity of ALK5 is rendered constitutive via point mutation at amino acid 204 (threonine to aspartate modification, ALK5 T204D) and the kinase construct is engineered to be expressed from a baculovirus expression construct in insect cells. The purified, recombinantly-expressed histidine-tagged ALK5 T204D protein is dissolved at 5.4 mg/ml in 50 mM Tris-HCl pH 8.0, 150 mM NaCl, 5 mM DTT. ALK5 T204D is dissolved to 2.5 μg/ml in assay buffer (Assay buffer: 20 mM Tris-HCl pH 7.4, 10 mM MgCl2, 2 mM MnCl2) on the day of use.
Test compounds and reference compounds are dissolved in assay buffer without DTT containing 5% (v/v) DMSO. Stock solutions of test and reference compounds are diluted in assay buffer with DTT (1.25 mM) containing 4.5% (v/v) DMSO. 10 μl of test or reference compound are added to the appropriate wells of 96 well U-bottomed plate. Total enzyme activity is determined by measuring ALK5 T204D activity in the absence of ALK5 kinase inhibitor reference compounds. Non-specific binding (NSB) is determined by measuring the activity of ALK5 T204D in the presence of ALK5 kinase inhibitor reference compounds. 10 μl of dephosphorylated casein stock solution (dephosphorylated casein is dissolved in ddH2O at 20 mg/ml) is added per well (200 μg/well final assay concentration). 20 μl of ALK5 T204D (2.5 μg/ml solution) is added per well (50 ng/well final assay concentration). The plates are left to incubate at room temperature for 10 minutes.
10 μl of ATP mix is added to the well to initiate the reaction (0.66 nM [^33P]ATP/1 μM unlabelled ATP/well final assay concentration). The ATP mix is prepared as follows, unlabelled ATP (3 mM) is dissolved in ddH2O and pH adjusted to 7.4. The stock concentration of [^33P]ATP is 10 μCi/μl. The appropriate volume of [^33P]ATP is added to unlabelled ATP solution such that the final assay concentration per well is 0.1 μCi. Following addition of the ATP mix, the plates are incubated at room temperature for 50 minutes. The kinase reaction is terminated by the addition of 50 μL Stop Buffer (20 mM Tris-HCl pH 7.4, 10 mM EDTA).
75 μl/well from the reaction plate is transferred to a Multiscreen-IP plate (MultiScreen-IP plates are prepared by added 50 μL of 70% (v/v) ethanol per well and incubated for 5 minutes at room temperature. The ethanol is removed by aspiration via a MultiScreen HTS Vaccum Manifold unit (Millipore, Cat no: MSVMHT500). The plates are washed twice by adding 200 μl/well ddH2O). The MultiScreen-IP plate is incubated at room temperature for 30 minutes to allowing binding of casein to the plate. The MultiScreen-IP plates are washed three times by adding 200 μl/well 100 mM phosphoric acid solution and the gasket is carefully removed from the back of the MultiScreen-IP plate and the plate dried in the oven for 30 minutes. The MultiScreen-IP plate is backsealed, 50 μL of Microscint™20 is added, then the plates are topsealed and radiolabelled casein detected and quantified on a TopCount™ plate-reader using the ^33P scintillation protocol.

[2] = test system: dimethylnitrosamine induced liver fibrosis; conditions: rat, cited from earlier work
[3] = test system: bleomycin-induced pulmonary fibrosis; conditions: bleomycin-treated rats; cited from earlier work
[4] = dimethylnitrosamine induced liver fibrosis, given therapeutically

Row | Molecule | IC50 [1] | also measured
1 | CC(C)N1CCN(C(=O)c2ccc(-c3cncc(-c4cc(Cl)nc(-c5ccccn5)n4)c3)cc2)CC1 [Example 1, {4-[5-(6-Chloro-2-pyridin-2-yl-pyrimidin-4-yl)-pyridin-3-yl]-phenyl}-(4-isopropyl-piperazin-1-yl)-methanone] | 335 nM | –
2 | CC(C)N1CCN(C(=O)c2ccc(-c3cncc(-c4ccnc(-c5ccccn5)n4)c3)cc2)CC1 [Example 3, (4-Isopropyl-piperazin-1-yl)-{4-[5-(2-pyridin-2-yl-pyrimidin-4-yl)-pyridin-3-yl]-phenyl}-methanone] | 592 nM | –
3 | Cc1cccc(-c2nc(OCCc3c[nH]c4ccccc34)cc(-c3cccnc3)n2)n1 [Example 6, 3-{2-[2-(6-Methyl-pyridin-2-yl)-6-pyridin-3-yl-pyrimidin-4-yloxy]-ethyl}-1H-indole] | 261 nM | –
4 | Cc1cccc(-c2nc(OCc3ccccc3)cc(-c3cncc(-c4ccc(C(=O)N5CCN(C(C)C)CC5)cc4)c3)n2)n1 [Example 8, (4-{5-[6-Benzyloxy-2-(6-methyl-pyridin-2-yl)-pyrimidin-4-yl]-pyridin-3-yl}-phenyl)-(4-isopropyl-piperazin-1-yl)-methanone] | 265 nM | –
5 | CC(C)N1CCN(C(=O)c2ccc(-c3cncc(-c4cc(OCc5ccccc5)nc(-c5ccccn5)n4)c3)cc2)CC1 [Example 11, {4-[5-(6-Benzyloxy-2-pyridin-2-yl-pyrimidin-4-yl)-pyridin-3-yl]-phenyl}-(4-isopropyl-piperazin-1-yl)-methanone] | 24 nM | –
6 | c1ccc(-c2cc(-c3cn[nH]c3-c3ccccn3)ccn2)cc1 [GW6604] | – | inhibition of extracellular matrix deposition [2, 4]: 60%; prevention of the death rate [2, 4]: 40%; side effects ([2]; during the 3 weeks treatment): no obvious side effects
7 | B1 | – | effect on lung fibrosis [3]: attenuated lung fibrosis
